# Values joined by “and” are separate entries in the source; they are usually repeats but may differ in a detail not shown here. Equal values may be shown once. Marks after values point to notes of the source that are not given here.
# Legend:
# [1] = test system: IGROV-1 SP cells (ABCB1+); assay: SP analysis (DCV, flow cytometry) in IGROV-1 SP cells; format: cell-based, human; conditions: 10 μM
# Text: (§1) In recent studies, we described the side population (SP) phenotype as a marker that defines a heterogeneous cellular compartment with stem cell-characteristics in various cancer cell lines derived from solid tumors, such as ovarian cancer, breast cancer, and lung cancer.[26],[27]
# [2] = Microsomal metabolic stability, mouse; format: in vitro ADME; conditions: for metabolic stability Mouse, % of compound remaining: after 30 min in MLM, 1 μM; for half-life at 1 µM: mouse, pooled mouse liver microsomes, pH 7.4, MLM, read-out: metabolic stability Mouse t1/2
# Description: (§2) The stability of the compounds was assessed in pooled human and mouse liver microsomes (final protein concentration 0.5 mg/mL). […] At the appropriate time points, the reactions were stopped by transferring into acetonitrile. After protein precipitation, by centrifugation at 3000 rpm for 20 min at 4 °C, the sample supernatants were analyzed using LC–MS/MS analysis (control compounds were included). The elimination rate constant was determined from the ratio of the ln peak area to time. Half-life (t1/2) and intrinsic clearance (CLint) were calculated using the appropriate formulas.
# [3] = biological target: ABCB1 transporter in K562-R cells (Homo sapiens, UniProt P08183); assay: Side population (SP) analysis, DCV staining, flow cytometry; conditions: 10 μM
# Sequence of ABCB1 transporter in K562-R cells (P08183 whole entry): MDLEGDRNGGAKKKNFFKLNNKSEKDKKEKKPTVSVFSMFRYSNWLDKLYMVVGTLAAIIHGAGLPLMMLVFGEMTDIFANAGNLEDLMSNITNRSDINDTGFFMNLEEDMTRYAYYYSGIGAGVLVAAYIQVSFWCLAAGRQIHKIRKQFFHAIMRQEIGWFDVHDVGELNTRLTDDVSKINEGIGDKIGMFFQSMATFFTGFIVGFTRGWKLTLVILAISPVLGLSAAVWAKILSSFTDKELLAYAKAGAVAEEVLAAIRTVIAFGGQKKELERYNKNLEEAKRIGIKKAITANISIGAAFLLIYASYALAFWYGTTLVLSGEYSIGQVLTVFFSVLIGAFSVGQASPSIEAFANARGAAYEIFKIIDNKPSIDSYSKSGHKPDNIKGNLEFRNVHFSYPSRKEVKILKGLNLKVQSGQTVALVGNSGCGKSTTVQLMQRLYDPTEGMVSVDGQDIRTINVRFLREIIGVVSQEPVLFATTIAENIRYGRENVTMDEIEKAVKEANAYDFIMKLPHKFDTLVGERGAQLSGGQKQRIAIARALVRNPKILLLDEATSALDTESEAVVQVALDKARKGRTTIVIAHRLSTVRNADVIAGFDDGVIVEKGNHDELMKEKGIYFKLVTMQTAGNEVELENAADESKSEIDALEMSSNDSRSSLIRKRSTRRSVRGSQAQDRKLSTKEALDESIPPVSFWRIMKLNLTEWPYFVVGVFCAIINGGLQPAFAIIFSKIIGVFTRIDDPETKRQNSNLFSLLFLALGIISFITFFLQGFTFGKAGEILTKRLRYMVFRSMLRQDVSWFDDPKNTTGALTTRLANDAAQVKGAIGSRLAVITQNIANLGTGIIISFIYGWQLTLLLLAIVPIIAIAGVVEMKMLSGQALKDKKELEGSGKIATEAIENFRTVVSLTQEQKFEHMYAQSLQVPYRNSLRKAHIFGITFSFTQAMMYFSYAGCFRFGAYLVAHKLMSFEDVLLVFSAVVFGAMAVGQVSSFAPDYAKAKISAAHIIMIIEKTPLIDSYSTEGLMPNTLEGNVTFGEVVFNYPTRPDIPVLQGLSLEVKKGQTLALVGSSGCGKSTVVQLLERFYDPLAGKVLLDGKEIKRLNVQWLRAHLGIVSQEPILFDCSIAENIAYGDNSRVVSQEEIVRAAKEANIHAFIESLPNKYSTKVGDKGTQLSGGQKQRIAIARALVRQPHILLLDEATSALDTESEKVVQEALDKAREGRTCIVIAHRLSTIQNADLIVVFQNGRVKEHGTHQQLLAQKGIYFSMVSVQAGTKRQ
# [4] = test system: A2780 V SP cells (ABCB1+); assay: SP analysis (DCV, flow cytometry) in A2780 V SP cells; format: cell-based, human; conditions: 10 μM
# Text: as §1
# PC3-DR cells (ABCB1+) = assay: SP analysis (DCV, flow cytometry) in PC3-DR cells; format: cell-based, human; conditions: 10 μM
# Text: as §1
# IGROV-1 SP cells = assay: Chemosensitizing to paclitaxel: metabolic activity of IGROV-1 SP cells (MTT); format: cell-based, human; conditions: compound 10 μM + PTX 10 nM, 72 h
# Description: The chemosensitizing efficacy was investigated in the ovarian and prostate cancer cell lines using the above-described metabolic activity assay. Paclitaxel (PTX) served as a reference (CTR) in A2780 V SP and IGROV-1 SP cells and docetaxel (DTX) in PC3-DR and D145-DR cells.
# COS-7 (2 × 10^3 cells per well), IGROV-1 SP (2.5 × 10^3 cells per well), A2780 V SP (1.5 × 10^3 cells per well), PC3-DR (4 × 10^3 cells per well), and DU145-DR (3 × 10^3 cells per well) cells were seeded in 96-well plates in triplicates and after 24 h, the compounds were added at the respective concentrations. K562-R and K562 cells (2 × 10^4 cells per well), were treated with the compounds 2 h after seeding. […] A modified MTT colorimetric assay (EZ4U kit, Biomedica) was used to determine the metabolic activity of the tested cells, according to the manufacturer’s instructions. Absorbance was measured and the optical density of the respective FCS-containing medium and of the substrate was subtracted to exclude nonspecific staining. Metabolic activity in the absence of the compounds (CTR, DMSO) was set to 100% as reference.
# [5] = Turbidimetric aqueous solubility; format: physicochemical; conditions: phosphate buffered saline, estimated precipitation range, PBS pH 7.4, 37 °C
# [6] = Microsomal metabolic stability, human; format: in vitro ADME; conditions: for metabolic stability Human, % of compound remaining: after 30 min in HLM, 1 μM; for half-life at 1 µM: human, pooled human liver microsomes, pH 7.4, HLM, read-out: metabolic stability Human t1/2
# Description: as §2
# [7] = test system: human CML K562-R xenograft; assay: Efficacy in human CML K562-R xenograft model; format: in vivo, female NOD/SCID mice; set-up: % T/C (treatment/control) / % TGI (tumor growth inhibition): concentration or dose not given beside the values; conditions: for Tumor Volume, individual animal / Tumor Volume, group mean: PO QD x 30 days (imatinib 50 mg/kg, 7c 10 mg/kg); for % T/C (treatment/control): mean tumor volume treated vs control; for % TGI (tumor growth inhibition): vs vehicle control
# Description: The animals were checked daily for humane end points. Body weight was measured and recorded daily after dosing.
# The % T/C value, defined as the ratio of the mean tumor volume for the treated versus control group, was calculated as % T/C = (Tn/Cn) × 100%; whereas Tn: denotes mean tumor volume of the treated group on day n, and Cn: denotes mean tumor volume of the control group on day n. The optimal value is the minimal % T/C ratio, which reflects the maximal tumor growth inhibition achieved.
# TGI (Tumor growth inhibition) was calculated by the following formula [drawing 1] [drawing 2]
# Whereas: Tn: denotes the mean tumor volume of the treated group on day n; T1: denotes the mean tumor volume of the treated group on day 1; Cn: denotes the mean tumor volume of the vehicle control group on day n; and C1: denotes the mean tumor volume of the vehicle control group at day 1.
# [8] = Body weight / tolerability in the K562-R xenograft study; conditions: for Body Weight, individual animal / Body Weight, group mean: PO QD x 30 days (imatinib 50 mg/kg, 7c 10 mg/kg); for Body Weight, individual animal: animals No. 1–7; for Body Weight, group mean: n = 7
compound,measurement,setting,value
"CCCc1nc2c(C)cc(-c3nc4ccccc4n3C)cc2n1Cc1ccc(-c2ccccc2C(=O)OC)cc1 [7b, Methyl 4′-((1,7′-dimethyl-2′-propyl-1H,3′H-[2,5′-bibenzo[d]imidazole]-3′-yl)methyl)-[1,1′-biphenyl]-2-carboxylate]",effect on SP phenotype,[1],eliminated the SP phenotype
same,"metabolic stability Mouse, % of compound remaining",[2],3%
same,half-life at 1 µM,[2],6 min
same,effect on SP phenotype / ABCB1 activity,[3],completely repressed the SP phenotype
same,effect on SP phenotype,[4],eliminated the SP phenotype
same,effect on SP phenotype,PC3-DR cells (ABCB1+),eliminated the SP phenotype
same,viability / antimetabolic effect in combination with PTX,IGROV-1 SP cells,inactive
same,solubility at 2 h,[5],< 6.5 µM
same,"metabolic stability Human, % of compound remaining",[6],26.3%
same,half-life at 1 µM,[6],16.2 min
"CCCc1nc2c(C)cc(-c3nc4ccccc4n3C)cc2n1Cc1ccc(-c2ccccc2C(N)=O)cc1 [7c, 4′-((1,7′-Dimethyl-2′-propyl-1H,3′H-[2,5′-bibenzo[d]imidazole]-3′-yl)methyl)-[1,1′-biphenyl]-2-carboxamide]",effect on SP phenotype,[1],eliminated the SP phenotype
same,"metabolic stability Mouse, % of compound remaining",[2],13.3%
same,half-life at 1 µM,[2],8.8 min
same,effect on SP phenotype / ABCB1 activity,[3],completely repressed the SP phenotype
same,effect on SP phenotype,[4],eliminated the SP phenotype
same,effect on SP phenotype,PC3-DR cells (ABCB1+),eliminated the SP phenotype
same,solubility at 2 h,[5],< 6.5 µM
same,"Tumor Volume, individual animal","[7]; Day 1, animals No. 1–7",171 mm3 and 163 mm3 and 155 mm3 and 149 mm3 and 140 mm3 and 136 mm3 and 124 mm3
same,"Tumor Volume, group mean","[7]; Day 1, n = 7",148 mm3
same,"Tumor Volume, individual animal","[7]; Day 5, animals No. 1–7",197 mm3 and 204 mm3 and 162 mm3 and 148 mm3 and 149 mm3 and 187 mm3 and 130 mm3
same,"Tumor Volume, group mean","[7]; Day 5, n = 7",168 mm3
same,% T/C (treatment/control),[7]; Day 5,90%
same,% TGI (tumor growth inhibition),[7]; Day 5,46%
same,"Tumor Volume, individual animal","[7]; Day 8, animals No. 1–7",202 mm3 and 360 mm3 and 167 mm3 and 154 mm3 and 155 mm3 and 464 mm3 and 133 mm3
same,"Tumor Volume, group mean","[7]; Day 8, n = 7",234 mm3
same,% T/C (treatment/control),[7]; Day 8,96%
same,% TGI (tumor growth inhibition),[7]; Day 8,9%
same,"Tumor Volume, individual animal","[7]; Day 12, animals No. 1–7",213 mm3 and 711 mm3 and 201 mm3 and 158 mm3 and 164 mm3 and 949 mm3 and 143 mm3
same,"Tumor Volume, group mean","[7]; Day 12, n = 7",363 mm3
same,% T/C (treatment/control),[7]; Day 12,88%
same,% TGI (tumor growth inhibition),[7]; Day 12,18%
same,"Tumor Volume, individual animal","[7]; Day 15, animals No. 1–7",216 mm3 and 991 mm3 and 317 mm3 and 165 mm3 and 168 mm3 and 1349 mm3 and 143 mm3
same,"Tumor Volume, group mean","[7]; Day 15, n = 7",478 mm3
same,% T/C (treatment/control),[7]; Day 15,75%
same,% TGI (tumor growth inhibition),[7]; Day 15,32%
same,"Tumor Volume, individual animal","[7]; Day 19, animals No. 1–7",207 mm3 and 1716 mm3 and 521 mm3 and 192 mm3 and 174 mm3 and 1858 mm3 and 148 mm3
same,"Tumor Volume, group mean","[7]; Day 19, n = 7",688 mm3
same,% T/C (treatment/control),[7]; Day 19,84%
same,% TGI (tumor growth inhibition),[7]; Day 19,20%
same,"Tumor Volume, individual animal","[7]; Day 22, animals No. 1–7",181 mm3 and 2448 mm3 and 891 mm3 and 198 mm3 and 180 mm3 and 2149 mm3 and 149 mm3
same,"Tumor Volume, group mean","[7]; Day 22, n = 7",885 mm3
same,% T/C (treatment/control),[7]; Day 22,79%
same,% TGI (tumor growth inhibition),[7]; Day 22,24%
same,"Tumor Volume, individual animal","[7]; Day 26, animals No. 1–7",181 mm3 and 2912 mm3 and 1522 mm3 and 206 mm3 and 188 mm3 and 2607 mm3 and 156 mm3
same,"Tumor Volume, group mean","[7]; Day 26, n = 7",1110 mm3
same,% T/C (treatment/control),[7]; Day 26,69%
same,% TGI (tumor growth inhibition),[7]; Day 26,34%
same,"Tumor Volume, individual animal","[7]; Day 29, animals No. 1–7",184 mm3 and 3497 mm3 and 1803 mm3 and 214 mm3 and 196 mm3 and 2946 mm3 and 163 mm3
same,"Tumor Volume, group mean","[7]; Day 29, n = 7",1286 mm3
same,% T/C (treatment/control),[7]; Day 29,65%
same,% TGI (tumor growth inhibition),[7]; Day 29,38%
same,"Tumor Volume, individual animal","[7]; Day 33, animals No. 1–7",200 mm3 and 4707 mm3 and 2923 mm3 and 214 mm3 and 196 mm3 and 3520 mm3 and 172 mm3
same,"Tumor Volume, group mean","[7]; Day 33, n = 7",1705* mm3
same,% T/C (treatment/control),[7]; Day 33,63%
same,% TGI (tumor growth inhibition),[7]; Day 33,39%
same,"Tumor Weight, individual animal","[7]; harvested on day 33, animals No. 1–7",0.078 g and 3.807 g and 2.646 g and 0.268 g and 0.057 g and 4.319 g and 0.060 g
same,"Tumor Weight, group mean","[7]; harvested on day 33, n = 7",1.600 g
same,tolerability,"[8]; 7c 10 mg/kg, imatinib 50 mg/kg, PO QD × 30 days",well tolerated
same,"Body Weight, individual animal",[8]; Day 1,23 g and 25 g and 26 g and 21 g
same,"Body Weight, group mean",[8]; Day 1,24.1 g
same,"Body Weight, individual animal",[8]; Day 5,23 g and 24 g and 25 g and 26 g and 21 g
same,"Body Weight, individual animal",[8]; Day 8,23 g and 22 g and 26 g and 28 g and 24 g
same,"Body Weight, group mean",[8]; Day 8,24.0 g
same,"Body Weight, individual animal",[8]; Day 12,23 g and 22 g and 25 g and 27 g and 24 g
same,"Body Weight, individual animal",[8]; Day 15,23 g and 22 g and 25 g and 27 g and 21 g
same,"Body Weight, group mean",[8]; Day 15,23.4 g
same,"Body Weight, individual animal",[8]; Day 19,23 g and 25 g and 22 g and 28 g
same,"Body Weight, individual animal",[8]; Day 22,24 g and 25 g and 23 g and 27 g and 22 g
same,"Body Weight, group mean",[8]; Day 22,24.1 g
same,"Body Weight, individual animal",[8]; Day 26,25 g and 26 g and 22 g and 27 g and 23 g
same,"Body Weight, individual animal",[8]; Day 29,23 g and 26 g and 21 g and 28 g and 24 g and 22 g
same,"Body Weight, individual animal",[8]; Day 33,24 g and 27 g and 22 g and 26 g and 28 g and 23 g
same,"Body Weight, group mean",[8]; Day 33,25.1 g
same,"metabolic stability Human, % of compound remaining",[6],58.1%
same,half-life at 1 µM,[6],45.1 min

# — paper PMC11726677, “Eradication of Therapy-Resistant Cancer Stem Cells by Novel Telmisartan Derivatives” (Journal of Medicinal Chemistry, 2024)
